From patent publication US20160297763A1, “Heteroaryl hydroxamic acid derivatives and their use in the treatment, amelioration or prevention of a viral disease” (priority 2011, published 2016)
Where a name gives a salt, the structure may show the parent alone.

Row | SMILES | melting point [°C]
1 | Cl.O=C(c1cc(N2CCC(F)(F)CC2)ccn1)N(O)Cc1ccccc1 | 90 to 95
2 | CC(C)c1cc2c(=O)[nH]c(N)nc2s1 | 347 to 349
3 | Cl.O=C(c1cc(N2CCC(F)(F)C2)ccn1)N(O)Cc1ccccc1 | 162 to 166
4 | Cc1c(Cc2ccc(Cl)cc2)sc2nc(N)[nH]c(=O)c12 | 300 to 320
5 | CC(C)c1cccc(-c2ccc(C(=O)N(O)CCc3ccccc3)nc2)c1 | 110 to 115
6 | Cc1c(-c2ccccc2)sc2nc(NCCN3CCOCC3)[nH]c(=O)c12 | 240 to 246
7 | Cc1c(-c2ccc(F)nc2F)sc2nc(N)[nH]c(=O)c12 | 330 to 335
8 | Cc1c(-c2ccc(Cl)c(O)c2)sc2nc(N)[nH]c(=O)c12 | > 350
9 | Cc1c(-c2cccnc2)sc2nc(N)[nH]c(=O)c12 | 280 to 290
10 | Cc1c(Cc2ccccc2)sc2nc(N)[nH]c(=O)c12 | 292 to 294
11 | Nc1nc2sc(Cc3ccccc3)cc2c(=O)[nH]1 | 294 to 296
12 | O=C(c1cc(N2CCCC(F)(F)C2)ccn1)N(O)Cc1ccccc1 | 140 to 145
13 | O=C(NOCc1ccccc1)c1cc2ccccc2cn1 | 85 to 90
14 | Cc1c(-c2ccc(F)c(C#N)c2)sc2nc(N)[nH]c(=O)c12 | 330 to 350
15 | Cc1c(-c2ccc(F)c(C#N)c2F)sc2nc(N)[nH]c(=O)c12 | 360 to 380
16 | Cc1sc2nc(N)[nH]c(=O)c2c1-c1ccc(F)cc1 | 360 to 362
17 | CN1CC=C(c2ccnc(C(=O)N(O)Cc3ccccc3)c2)CC1 | 135 to 155
18 | O=C(c1cc(-c2ccc(Cl)cc2)ccn1)N(O)Cc1ccccc1 | 190 to 195
19 | O=C(c1cc(C2=CCNCC2)ccn1)N(O)Cc1ccccc1 (as salt: hydrochloride) | 140 to 150
20 | Cc1c(-c2ccc(Cl)nc2)sc2nc(N)[nH]c(=O)c12 | 230 to 250
21 | O=C(c1cc(-c2ccc(Cl)c(Cl)c2)ccn1)N(O)Cc1ccccc1 | 125 to 130
22 | Cc1c(-c2c(F)ccc(Cl)c2F)sc2nc(N)[nH]c(=O)c12 | 330 to 350
23 | O=C(c1cc(NS(=O)(=O)c2ccccc2)ccn1)N(O)Cc1ccccc1 | 175 to 180
24 | Cl.O=C(NO)c1cc(NS(=O)(=O)Cc2cccc(Cl)c2Cl)ccn1 | 210 to 218
25 | C[C@@H]1CN(c2ccnc(C(=O)N(O)Cc3ccccc3)c2)C[C@H](C)O1 | 180 to 185

Row | SMILES | melting point [°C]
26 | O=C(NO)c1ccc(N2CCCC2)cn1 | 220 to 225
27 | O=C(NOCc1ccccc1)c1ccc(N2CCCC2)cn1 | 165 to 170
28 | CN(C)CCNC(=O)c1cccc(-c2ccnc(C(=O)N(O)Cc3ccccc3)c2)c1 | 65 to 70
29 | CCONC(=O)c1ccc(-c2ccccc2)cn1 | 100 to 105
30 | CN(O)C(=O)c1cc2ccccc2cn1 | 110 to 115
31 | Cc1c(-c2ccccc2)sc2nc(NCCN)[nH]c(=O)c12 | 192 to 194
32 | Cc1c(-c2cccc(Cl)c2F)sc2nc(N)[nH]c(=O)c12 | 330 to 350
33 | Cl.O=C(c1cc(NS(=O)(=O)Cc2cccc(F)c2)ccn1)N(O)Cc1ccccc1 | 111 to 113
34 | O=C(c1cc(N2CCC(N3CCCC3)CC2)ccn1)N(O)Cc1ccccc1 | 135 to 140
35 | Cc1c(-c2cnccn2)sc2nc(N)[nH]c(=O)c12 | 280 to 300
36 | Cc1c(-c2cccc(C#N)c2)sc2nc(N)[nH]c(=O)c12 | > 350
37 | CCON(C)C(=O)c1ccc(-c2ccccc2)cn1 | 70 to 75
38 | Cc1c(-c2ccccc2Cl)sc2nc(N)[nH]c(=O)c12 | 334 to 336
39 | Cc1c(-c2ccccc2)sc2nc(N)[nH]c(=O)c12 | 356 to 358
40 | Cc1c(-c2ccc(Cl)c(C(F)(F)F)c2)sc2nc(N)[nH]c(=O)c12 | > 350
41 | Cl.O=C(NO)c1cc(NS(=O)(=O)Cc2ccc(Cl)cc2)ccn1 | 210 to 230
42 | Cl.O=C(NO)c1cc(NS(=O)(=O)Cc2cc(Cl)cc(Cl)c2)ccn1 | 203 to 205
43 | Cc1c(-c2ccccc2)sc2nc(NCCN(C)C)[nH]c(=O)c12 | 199 to 201
44 | Cc1c(-c2ccnc(Cl)c2F)sc2nc(N)[nH]c(=O)c12 | 330 to 350
45 | NC(=O)c1ccc(-c2ccnc(C(=O)N(O)Cc3ccccc3)c2)cc1 | 155 to 160
46 | Cc1c(-c2cccc(F)c2)sc2nc(N)[nH]c(=O)c12 | 310 to 330
47 | NC(=O)c1cccc(-c2ccnc(C(=O)N(O)Cc3ccccc3)c2)c1 | 158 to 162
48 | O=C(NO)c1cc2ccccc2cn1 | 160 to 165
49 | Cc1c(-c2ccc(F)cc2)sc2nc(N)[nH]c(=O)c12 | 325 to 335
50 | CCONC(=O)c1ccc(-c2cccc(CN(C)Cc3ccccc3)c2)cn1.Cl (hydrate or solvate) | 85 to 90

Row | SMILES | melting point [°C]
51 | CC(C)c1cccc(-c2ccc(C(=O)NO)nc2)c1 | 130 to 135
52 | O=C(c1ccc(-c2ccccc2)cn1)N(O)Cc1ccccc1 | 145 to 150
53 | CCONC(=O)c1cc(NCc2cccc(OCc3ccccc3)c2)ccn1.Cl | 70 to 75
54 | CCONC(=O)c1cc(NCCCc2cccc(Cl)c2)ccn1 | 100 to 105
55 | Cc1c(-c2cccc(CN(C)C)c2)sc2nc(N)[nH]c(=O)c12 | 207 to 212
56 | O=C(c1cc(-c2ccccc2)ccn1)N(O)Cc1ccccc1 | 160 to 165
57 | O=C(NOCc1ccccc1)c1ccc(-c2ccccc2)cn1 | 155 to 160
58 | Cc1c(-c2ccccc2)sc2nc(NC3CCCCC3)[nH]c(=O)c12 | 265 to 270
59 | O=C(NOC(=O)c1cc(N2CCCCC2)ccn1)c1cc(N2CCCCC2)ccn1 | 210 to 215
60 | COc1cc(-c2sc3nc(N)[nH]c(=O)c3c2C)ccc1Cl | 312 to 322
61 | Cl.O=C(c1cc(NS(=O)(=O)Cc2ccc(F)cc2)ccn1)N(O)Cc1ccccc1 | 178 to 183
62 | Cc1c(-c2ccccc2)sc2nc(NCCO)[nH]c(=O)c12 | 227 to 229
63 | Nc1nc2sc(-c3ccccc3)c(Cl)c2c(=O)[nH]1 | > 350
64 | Cc1c(-c2ccc(Cl)c(C#N)c2)sc2nc(N)[nH]c(=O)c12 | > 360
65 | Cc1c(-c2ccnc(C(F)(F)F)c2)sc2nc(N)[nH]c(=O)c12 | 335 to 355
66 | O=C(c1cc(-c2ccccc2)ccn1)N(O)Cc1ccc(F)cc1 | 135 to 140
67 | Cc1c(-c2cccc(C#N)c2F)sc2nc(N)[nH]c(=O)c12 | 350 to 370
68 | CC(C)(C)OC(=O)NC1CCN(c2ccnc(C(=O)N(O)Cc3ccccc3)c2)CC1 | 135 to 140
69 | Cl.O=C(NO)c1cc(NS(=O)(=O)Cc2ccccc2F)ccn1 | 209 to 216
70 | O=C(Nc1ccnc(C(=O)NO)c1)c1ccccc1 | 175 to 184
71 | Cc1c(-c2ccccc2)sc2nc(NCCNC(=O)CCCN3CCN(C)CC3)[nH]c(=O)c12 | 192 to 196
72 | O=C(c1ccc(N2CCCC2)cn1)N(Cc1ccccc1)OCc1ccccc1 | 95 to 100
73 | O=C(c1cc2ccccc2cn1)N(O)Cc1ccccc1 | 120 to 125
74 | Cc1c(-c2ccccc2)sc2nc(NCCCO)[nH]c(=O)c12 | 227 to 229
